Consider two compounds from patent US20090117054A1, “[…] FOR THE TREATMENT OF PAIN” (University of Kentucky Research Foundation, priority 2005, published 2009).

Read-outs that look alike come from different tables or passages of the source.

The conditions of data set [1]: cited from earlier work; for time to reach maximum plasma concentration: healthy volunteers.
Data set [2] is described as follows: Pharmacokinetics of oxycodone in rabbits after intravenous and sublingual spray administration.
Setting [3] is: male, New Zealand albino, rabbit, plasma, iv, 100 ug.

As a reminder, the bioavailability is the share of a dose that reaches the circulation, judged against a reference dose that is usually intravenous. Usually Tmax stands for the time at which the peak concentration occurs. What is called AUC(0-inf) is total exposure, with the tail of the curve extrapolated. Usually Cmax stands for the highest concentration seen after dosing. In general, half-life refers to the time needed for the level to fall by half in the phase considered.

As for `COc1ccc2c3c1O[C@H]1C(=O)CC[C@@]4(O)[C@@H](C2)N(C)CC[C@]314.Cl` [oxycodone hydrochloride], the bioavailability entry in data set [1] (buccal and intranasal administration) is “around 55%”.
In the case of `COc1ccc2c3c1O[C@H]1C(=O)CC[C@@]4(O)[C@@H](C2)N(C)CC[C@]314` [oxycodone, 4,5-epoxy-14-hydroxy-3-methoxy-1 7-methyl-5a-morphinan-6-one], the Tmax was 20 min in data set [2] (male, New Zealand albino, rabbit, plasma, 100 μg) and 0 min in data set [2] (setting [3]). The bioavailability was 45.4 ± 20.1% in data set [2] (male, New Zealand albino, rabbit, plasma, 100 μg, pH 4); 70.1 ± 17.9% in data set [2] (male, New Zealand albino, rabbit, plasma, 100 μg, pH 9); 40-60% in data set [1] (oral, nasal and rectal, adults, compared with parenteral administration). The same compound gave an AUC(0-inf) in data set [2] (setting [3]) of 213 ng·h/mL. The same compound showed a Cmax in data set [2] (setting [3]) of 185 ng/mL. The half-life in data set [2] (setting [3]) was 67.8 min. Moreover, in data set [2] (rabbits), the “terminal half-life after intravenous administration compared with sublingual administration” value was “close to the terminal half-life after sublingual administration”. The “time to reach maximum plasma concentration” value in data set [1] (immediate release oral tablets) was 1.3 h; in data set [1] (intramuscular) it was 1.0 h; in data set [1] (intranasal) it was 0.42 h.
